{"source": "patent US20230089267A1", "about": "“Compositions and Methods For Reducing Immune Intolerance and Treating Autoimmune Disorders” (Lapix Therapeutics, Inc., priority 2021, published 2023)", "key": {"passive MG model": {"system": "passive MG model", "test": "Passive myasthenia gravis model, adoptive transfer to RAG2−/− mice", "type": "in vivo", "settings": "by day 10, SC daily for ten days", "protocol": "In this passive MG model in B6 mice, donor mice (n=20, aged 6-8 weeks) were immunized with complete Freund's adjuvant (CFA) and nicotinic acetylcholine receptor (AChR) emulsion weekly for four weeks. Seven days after the last immunization, splenocytes were collected, and 10^6 cells/mouse were transferred to RAG2^−/− mice. The recipient mice (n=10/group) were treated one day after adoptive transfer with prednisone (1 μg/mouse) SC daily for ten days after disease onset or Compound 2 3 μg SC daily for ten days after disease onset, or were left untreated. Minimal manifestation of disease was defined as a return to a clinical score of 1 after an exacerbation (score 2 or higher). Time to return to minimal score was logged, and the likelihood of return was plotted for untreated animals, and standard of care (SOC; prednisone)- and Compound 2-treated animals."}, "[1]": {"system": "FoxP3+/CD4+ T-cells in splenocytes from naïve C57BL/6 mice", "test": "In vitro dose-response, percent FoxP3+/CD4+ T-cells in murine splenocytes", "type": "cell-based", "protocol": "All animal studies were conducted under IACUC number B2020-91 and in compliance with Tufts University/Tufts Medical Center & Human Nutrition Research Center on Aging. Animals were housed four in a cage and had access to food and water ad libitum. Anti-FoxP3 and anti-CD4 for flow cytometry were obtained from eBioscience. Compounds 1-3 were formulated with 10% DMPC in PBS. PS liposomes were synthesized at a 30:70 PS:lipid molar ratio.\nSplenocytes from naïve C57BL/6 mice were stained with CFSE, seeded at 2×10^5 cells/well, and dosed with each compound from 1e^−4 μM to 3.0e^−9 μM using a log 2 dilution scheme. Cells were incubated for 72 hours before phenotyping for FoxP3+/CD4+ T-cells. Flow cytometer analysis was performed to assess changes in percent FoxP3+/CD4+ T-cells as a function of compound and dose. Concentration versus response was fitted to a 4-parameter, log-logistic model using the “dre” package in “R”. Both EC50 and EC90 were obtained by model fitting.\nCells were observed via a microscope at the end of the incubation period. All cells looked healthy and suitable for flow cytometry analysis.\nTable 2 summarizes EC50 and EC90 values obtained from the model fitting."}, "[2]": {"system": "MOG35-55-induced murine EAE model", "test": "Escalation treatment paradigm in MOG35-55-induced murine EAE model (Example 8)", "type": "in vivo, mice", "protocol": "Compound 2 (0.03 mg/ml) was formulated with hydroxypropyl beta cyclodextrin (HPCD) 1:80 (Compound 2:HPCD) and stored at 4° C. until use. Natalizumab, an anti-α4β1 integrin antibody is a monoclonal antibody that is approved by U.S. Food and Drug Administration (FDA) for the treatment of relapsing forms of MS. […] Natalizumab was diluted in PBS to a final concentration of 15 mg/ml before dosing. DMF is a disease-modifying therapy (DMT) recommended for the treatment of active relapsing multiple sclerosis. DMF (1 g) was dissolved in 50 ml of 4% solution of METHOCEL© to give a 20 mg/ml solution of DMF. The solution was stored at 4° C. until use.\nExperimental autoimmune (allergic) encephalomyelitis (EAE) is considered to be the best non-clinical model of multiple sclerosis (MS). Over 6,000 papers have been published in scientific journals on this model. EAE is characterized by immune responses against CNS tissue and can be induced in animals by immunizing them against proteins of the CNS. In the active EAE model, mice are immunized with MOG35-55 peptide emulsified in Complete Freund's Adjuvant (CFA) by subcutaneous injection at the tail base (100 μg of […] per mouse) under anesthesia. On the day of injection (Day 0) and two days later (Day 2), mice receive an intraperitoneal injection of pertussis toxin (PT) in PBS at 200 ng/mouse/dose (0.1 mL). Symptoms typically develop in mice 9-14 days after immunization (Day 0). Daily observation and scoring of mice start on Day 7 and continue until the end of the study. Table 5 (see Example 4 above) details the expected clinical symptoms and the scoring criteria used in this study.\nThis study was designed to evaluate the early sustained use of Compound 2 versus DMF in a treatment escalation paradigm (sustained use cohort), and Compound 2 versus natalizumab after DMF failure (escalation cohort). All animals in the escalation cohorts received 14 doses of DMF or Compound 2, or 3 doses of natalizumab, as per group assignment.\nProbability of disease control: Disease control was defined as a clinical score of less than 2.5. Animals in the different treatment groups were monitored after the 3:1:1 randomization. A score of 2.5 was recorded as an event and analyzed by survival analysis in GraphPad Prism 9. Animals not reaching a clinical score of 2.5 by day 14, the end of the treatment period, were assigned a score of zero for the survival analysis.\nEfficacy of Compound 2 versus DMF in early sustained use: Animals in the DMF group that reached a score of 2.5 were randomized 1:1:1, as per FIG. 5A. Animals randomized to continue DMF treatment were given the remainder of the 14 DMF doses. Animals from the first randomization that were treated with Compound 2 after disease onset continued treatment for a total of 14 doses. After the 14th dose, treatment was stopped and clinical score and overall survival were monitored.\nEfficacy of Compound 2 versus natalizumab in a treatment escalation cohort: Animals in the DMF group that reached a score of 2.5 were randomized 1:1:1, as per FIG. 5A. Animals randomized to natalizumab were dosed 100 μg/mouse IV every 3 days for 3 total doses starting the same day a score of 2.5 was recorded. Animals randomized to Compound 2 were dosed with 3 μg/mouse SC QD for 14 total doses starting on the same day a score of 2.5 was recorded.\nOverall survival: Death due to the disease was monitored in the early sustained use cohort as well as the escalation cohort. Death by disease (clinical score of 5) was recorded as an event “1,” death due to ulceration or for ex vivo analysis was recorded as “0.” Animals surviving until the end of the study were recorded “0” on day 27. Survival analysis was done in GraphPad Prism 9."}, "[3]": {"settings": "Mus musculus, T-cell, percent FoxP3+/CD4+ T-cells, 72 hours, 4-parameter log-logistic model fit"}, "[4]": {"settings": "escalation cohort after DMF failure (score 2.5), by day 14 after switching"}}}
{"compound": "N[C@@H](CNC(=O)Cc1ccc(OCc2cccc3ccccc23)cc1)C(=O)O", "note": "[Compound 2, (S)-2-Amino-3-(2-(4-(naphthalen-1-ylmethoxy)phenyl)acetamido)propanoic acid]", "values": [{"measurement": "animals returned to minimal manifestation of disease (score 1)", "setting": "passive MG model", "result": 63, "unit": "%"}, {"measurement": "EC50", "setting": "[1]; [3]", "result": 6.02, "unit": "pM"}, {"measurement": "EC90", "setting": "[1]; [3]", "result": 19.9, "unit": "pM"}, {"measurement": "mean FoxP3+/CD4+ T-cells, upper plateau, mean (SEM)", "setting": "[1]; high dose, from model fitting", "result": "4.54 (0.14) %"}, {"measurement": "dose-response behaviour of FoxP3+/CD4+ T-cells", "setting": "[1]; in words", "result": "showed a clear plateau"}, {"measurement": "mean FoxP3+/CD4+ T-cells, lower plateau, mean (SEM)", "setting": "[1]; low dose, from model fitting", "result": 2.20, "unit": "%"}, {"measurement": "disease course in early sustained use cohort", "setting": "[2]; 14 doses, followed to end of study", "result": "better overall disease control during therapy (day 1 to 14) and after stopping therapy (day 14 to end of study)"}, {"measurement": "mean clinical score after switching from DMF", "setting": "[2]; [4]", "result": "2.6 (SD=1.1)"}, {"measurement": "median clinical score after switching from DMF", "setting": "[2]; [4]", "result": 2.5}, {"measurement": "animals that survived until day 27, escalation cohort", "setting": "[2]; switched from DMF", "result": "8 out of 9"}, {"measurement": "overall survival, early sustained use cohort", "setting": "[2]; to day 27", "result": "all animals treated with Compound 2 survived until day 27"}, {"measurement": "animals that progressed to a disease score of 2.5", "setting": "[2]; treatment from disease onset (score 1), over the entire treatment period (14 days)", "result": "5 of the 9"}]}
